Source: US10301304B2, “Selective inhibitor of phosphatidylinositol 3-kinase-gamma” (VERTEX PHARMACEUTICALS INCORPORATED, priority 2013, dated 2019)
Where two headings read alike, the source gives them in different places.

Key:
[1] = target: T1, human P-gp (MDR) (Homo sapiens, UniProt P08183); assay: Efflux in MDCK-MDR1 cell line; type: in vitro ADME; conditions: MDCK overexpressing human P-gp, in words
T1 construct: expressed in transfected cells; host or cells: MDCK (Madin-Darby canine kidney) cells, MDCK-MDR1
T1 sequence (P08183 whole entry): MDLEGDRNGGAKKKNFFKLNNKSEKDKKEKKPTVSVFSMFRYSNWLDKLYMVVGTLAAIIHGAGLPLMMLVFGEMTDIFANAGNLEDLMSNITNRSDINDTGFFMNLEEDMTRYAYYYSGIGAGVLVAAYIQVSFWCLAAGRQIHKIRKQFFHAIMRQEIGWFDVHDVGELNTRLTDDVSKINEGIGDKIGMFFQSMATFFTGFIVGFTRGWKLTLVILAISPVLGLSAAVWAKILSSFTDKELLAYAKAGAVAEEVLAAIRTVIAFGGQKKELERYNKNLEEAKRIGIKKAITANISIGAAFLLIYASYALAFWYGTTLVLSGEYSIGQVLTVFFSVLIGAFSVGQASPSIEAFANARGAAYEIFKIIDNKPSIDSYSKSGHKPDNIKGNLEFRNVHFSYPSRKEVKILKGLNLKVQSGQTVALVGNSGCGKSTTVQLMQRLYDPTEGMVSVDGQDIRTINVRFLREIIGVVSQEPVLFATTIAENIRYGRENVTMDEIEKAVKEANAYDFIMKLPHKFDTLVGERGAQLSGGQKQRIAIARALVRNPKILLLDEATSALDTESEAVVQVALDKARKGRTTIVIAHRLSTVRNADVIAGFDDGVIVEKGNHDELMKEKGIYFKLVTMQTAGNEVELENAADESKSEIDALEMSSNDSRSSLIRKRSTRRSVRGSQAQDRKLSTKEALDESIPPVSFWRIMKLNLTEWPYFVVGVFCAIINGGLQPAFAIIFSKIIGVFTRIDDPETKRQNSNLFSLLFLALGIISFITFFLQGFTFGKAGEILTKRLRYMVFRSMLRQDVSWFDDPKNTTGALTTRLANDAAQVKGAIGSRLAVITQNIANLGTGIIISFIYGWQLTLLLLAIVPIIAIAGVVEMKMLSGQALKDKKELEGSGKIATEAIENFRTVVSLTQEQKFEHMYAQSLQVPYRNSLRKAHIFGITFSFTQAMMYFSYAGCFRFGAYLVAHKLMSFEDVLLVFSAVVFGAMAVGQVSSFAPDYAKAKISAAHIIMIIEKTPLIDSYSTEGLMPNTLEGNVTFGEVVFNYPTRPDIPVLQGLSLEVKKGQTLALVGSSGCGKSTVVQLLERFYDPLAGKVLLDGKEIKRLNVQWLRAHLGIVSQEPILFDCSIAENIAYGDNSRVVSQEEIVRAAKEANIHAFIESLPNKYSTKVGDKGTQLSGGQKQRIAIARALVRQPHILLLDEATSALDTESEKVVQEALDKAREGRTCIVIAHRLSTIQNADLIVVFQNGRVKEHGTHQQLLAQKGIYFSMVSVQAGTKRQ
Experimental: (§1) The permeability of Compound 1 was evaluated using both Caco-2 and MadinDarby canine kidney (MDCK) wild-type cell lines. Cells were exposed to drug in buffer on the apical side (measuring permeability in the A-to-B direction) or basolateral side (measuring permeability in the B-to-A direction) and incubated at 37° C. for one hour. Permeability was high in the A-to-B direction in both the MDCK and Caco-2 cell lines (33 and 18×10^−6 cm/sec, respectively).
(§2) An assessment of whether Compound 1 is a substrate of efflux transporters was conducted by using the MDCK cell line that is overexpressed with human P-gp (MDR).

[2] = target: T2, P-gp (MDR1) (Homo sapiens, UniProt P08183); assay: Efflux in MDCK-MDR1 cell line; type: in vitro ADME; conditions: human; for recovery at 1 h, 1 μM: MDCK-MDR1, MDCK-MDR1, 1 μM
T2 construct: expressed in transfected cells; host or cells: MDCK (Madin-Darby canine kidney) cells, MDCK-MDR1
T2 sequence (P08183 whole entry): as above
Experimental: as §1, §2

[3] = system: whole blood neutrophils and monocytes (PI3K-gamma); assay: Whole Blood oxidative burst; type: cell-based; conditions: presence of serum, read-out: IC50 Average ± Standard Deviation
Source text: Neutrophils, monocytes and macrophages are key mediators of innate immunity. They release reactive oxygen species (ROS) as part of the innate immune inflammatory response. ROS production is induced by inflammatory mediators like chemokines, bacterial peptides and complement that recruit the innate immune cells to the site of inflammation. These inflammatory mediators trigger activation of PI3K-gamma and initiate a downstream signaling cascade that leads to the assembly of the complete NADPH oxidase complex at the plasma membrane generating ROS. PI3K-gamma functional activity was measured in whole blood and huffy coat neutrophils and monocytes via the generation of ROS. The cells are stimulated with TNF-alpha for 10 minutes, then with bacterial cell wall-derived chemotactic peptide, fMLP, for 20 minutes, and loaded with a non-fluorescent dye […] (DHR). ROS produced by the cells oxidizes DHR to fluorescent rhodamine causing an increase in fluorescent rhodamine content in the cells. PI3K-gamma functional activity is measured by the ability of neutrophils and monocytes to generate ROS following fMLP stimulation. Leukocytes and whole blood samples were analyzed on a BD FACSCalibur™ to quantitate cells positive for fluorescent rhodamine. Buffy coat cells generate IC50S in the absence of serum and whole blood assay generates IC50S in the presence of serum.

[4] = Tissue Distribution in Rats; type: in vivo, rat; conditions: 5 mg/kg oral; for Kp at 0.5 h / Kp at 2 h / Kp at 7 h / Kp at 24 h / Kp at 48 h / Kp at 0.5 hr / Kp at 2 hr / Kp at 7 hr / Kp at 24 hr / Kp at 48 hr: male
Experimental: Compound 1 distributed well into most tissues after an oral dose of 5 mg/kg administered to male rats. […] The tissue to plasma ratio followed the trend of liver>kidney>heart>lung>spleen>brain>CSF. The elimination kinetics of Compound 1 in each examined organ followed plasma kinetics. There was no evidence for tissue accumulation of Compound 1 after a single dose administration.

[5] = system: Purified human B cells; assay: Human B Cell Proliferation Assay; type: cell-based
Source text: B cells are highly dependent on PI3Kδ for their development and activity. […] has an essential and non-redundant role in signaling via the B cell receptor (BCR) complex. Both IgM induced Ca+ influx and proliferation are attenuated in mice lacking PI3K-δ or with PI3K-δ inhibitors. PI3K-gamma has no role to play in any B cell activity. The specificity of the BCR complex for the […] to evaluate the extent of […] inhibition in cells. Purified human B cells are stimulated with anti-IgM in the presence of test compounds. Four days later cell viability/proliferation was measured using cell titer-glo to measure the ATP content of the cells in the well. Lack of or reduced proliferation is a measure of the extent of […].

SMILES: Cc1cc(-c2cncc([C@@H](O)C(F)(F)F)c2)nc2c1C(=O)N(c1cnn(CC(F)F)c1)C2(C)C [Compound 1, (R)-6-(1-(2,2-difluoroethyl)-1H-pyrazol-4-yl)-4,7,7-trimethyl-2-(5-(2,2,2-trifluoro-1-hydroxyethyl)pyridin-3-yl)-6,7-dihydro-5H-pyrrolo[3,4-b]pyridin-5-one]
- substrate of efflux transporters [1]: P-gp substrate
- recovery at 1 h, 1 μM ([2]; A > B): 97%
- recovery at 1 h, 1 μM ([2]; B > A): 87%
- efflux ratio at 1 h, 1 μM ([2]; MDCK-MDR1, 1 μM): 35.1
- Papp A→B at 1 h, 1 μM ([2]; MDCK-MDR1, 1 μM, A > B): 0.98 ×10⁻⁶ cm/s
- Papp B→A at 1 h, 1 μM ([2]; MDCK-MDR1, 1 μM, B > A): 34.3 ×10⁻⁶ cm/s
- IC50 [3]: 570 nM
- Cmax, brain ([4]; male rats): 111 ng/g
- Cmax, kidney ([4]; male rats): 4770 ng/g
- Cmax, liver ([4]; male rats): 11400 ng/g
- tissue to plasma ratio trend ([4]; male rats, in words): liver>kidney>heart>lung>spleen>brain>CSF
- Kp at 0.5 h ([4]; CSF (relative to plasma), rat, 0.5 hr post dose, read-out: Tissue to Plasma Ratio, CSF): 0.01
- Kp at 2 h ([4]; CSF (relative to plasma), rat, 2 hr post dose, read-out: Tissue to Plasma Ratio, CSF): 0.01
- Kp at 7 h ([4]; CSF (relative to plasma), rat, 7 hr post dose, read-out: Tissue to Plasma Ratio, CSF): 0.01
- Kp at 24 h ([4]; CSF (relative to plasma), rat, 24 hr post dose, read-out: Tissue to Plasma Ratio, CSF): 0.01
- Kp at 7 h ([4]; brain (relative to plasma), rat, 7 hr post dose, read-out: Tissue to Plasma Ratio, Brain): 0.05
- Kp at 24 h ([4]; brain (relative to plasma), rat, 24 hr post dose, read-out: Tissue to Plasma Ratio, Brain): 0.06
- Kp at 0.5 h ([4]; brain, rat, 0.5 hr post dose, read-out: Tissue to Plasma Ratio, Brain): 0.04
- Kp at 2 h ([4]; brain, rat, 2 hr post dose, read-out: Tissue to Plasma Ratio, Brain): 0.07
- Kp at 48 h ([4]; brain, rat, 48 hr post dose, read-out: Tissue to Plasma Ratio, Brain): 0.07
- Kp at 0.5 hr ([4]; heart, rat, 0.5 hr post dose, read-out: Tissue to Plasma Ratio, Heart): 0.98
- Kp at 2 hr ([4]; heart, rat, 2 hr post dose, read-out: Tissue to Plasma Ratio, Heart): 1.67
- Kp at 7 hr ([4]; heart, rat, 7 hr post dose, read-out: Tissue to Plasma Ratio, Heart): 1.4
- Kp at 24 hr ([4]; heart, rat, 24 hr post dose, read-out: Tissue to Plasma Ratio, Heart): 1.46
- Kp at 48 hr ([4]; heart, rat, 48 hr post dose, read-out: Tissue to Plasma Ratio, Heart): 1.39
- Kp at 0.5 hr ([4]; kidney, rat, 0.5 hr post dose, read-out: Tissue to Plasma Ratio, Kidney): 1.75
- Kp at 2 hr ([4]; kidney, rat, 2 hr post dose, read-out: Tissue to Plasma Ratio, Kidney): 2.54
- Kp at 7 hr ([4]; kidney, rat, 7 hr post dose, read-out: Tissue to Plasma Ratio, Kidney): 2.16
- Kp at 24 hr ([4]; kidney, rat, 24 hr post dose, read-out: Tissue to Plasma Ratio, Kidney): 3.03
- Kp at 48 hr ([4]; kidney, rat, 48 hr post dose, read-out: Tissue to Plasma Ratio, Kidney): 4.76
- Kp at 0.5 h ([4]; liver, rat, 0.5 hr post dose, read-out: Tissue to Plasma Ratio, Liver): 4.96
- Kp at 2 h ([4]; liver, rat, 2 hr post dose, read-out: Tissue to Plasma Ratio, Liver): 6.99
- Kp at 7 h ([4]; liver, rat, 7 hr post dose, read-out: Tissue to Plasma Ratio, Liver): 5.13
- Kp at 24 h ([4]; liver, rat, 24 hr post dose, read-out: Tissue to Plasma Ratio, Liver): 5.69
- Kp at 48 hr ([4]; liver, rat, 48 hr post dose, read-out: Tissue to Plasma Ratio, Liver): 5.32
- Kp at 0.5 h ([4]; lung, rat, 0.5 hr post dose, read-out: Tissue to Plasma Ratio, Lung): 1.24
- Kp at 2 h ([4]; lung, rat, 2 hr post dose, read-out: Tissue to Plasma Ratio, Lung): 1.38
- Kp at 7 h ([4]; lung, rat, 7 hr post dose, read-out: Tissue to Plasma Ratio, Lung): 1.22
- Kp at 24 h ([4]; lung, rat, 24 hr post dose, read-out: Tissue to Plasma Ratio, Lung): 1.17
- Kp at 48 h ([4]; lung, rat, 48 hr post dose, read-out: Tissue to Plasma Ratio, Lung): 1.31
- Kp at 0.5 h ([4]; spleen, rat, 0.5 hr post dose, read-out: Tissue to Plasma Ratio, Spleen): 0.74
- Kp at 2 h ([4]; spleen, rat, 2 hr post dose, read-out: Tissue to Plasma Ratio, Spleen): 1.15
- Kp at 7 h ([4]; spleen, rat, 7 hr post dose, read-out: Tissue to Plasma Ratio, Spleen): 0.81
- Kp at 24 h ([4]; spleen, rat, 24 hr post dose, read-out: Tissue to Plasma Ratio, Spleen): 0.93
- Kp at 48 h ([4]; spleen, rat, 48 hr post dose, read-out: Tissue to Plasma Ratio, Spleen): 0.88
- Compound 1 Concentration, Brain ([4]; rat, 0.5 hr post dose): 74 ng/ml or ng/g
- Compound 1 Concentration, CSF ([4]; rat, 0.5 hr post dose): 20 ng/ml or ng/g
- Compound 1 Concentration, Heart ([4]; rat, 0.5 hr post dose): 1730 ng/ml or ng/g
- Compound 1 Concentration, Kidney ([4]; rat, 0.5 hr post dose): 3070 ng/ml or ng/g
- Compound 1 Concentration, Liver ([4]; rat, 0.5 hr post dose): 8710 ng/ml or ng/g
- Compound 1 Concentration, Lung ([4]; rat, 0.5 hr post dose): 2180 ng/ml or ng/g
- Compound 1 Concentration, Plasma ([4]; rat, 0.5 hr post dose): 1760 ng/ml or ng/g
- Compound 1 Concentration, Spleen ([4]; rat, 0.5 hr post dose): 1290 ng/ml or ng/g
- Compound 1 Concentration, Brain ([4]; rat, 2 hr post dose): 129 ng/ml or ng/g
- Compound 1 Concentration, CSF ([4]; rat, 2 hr post dose): 23.3 ng/ml or ng/g
- Compound 1 Concentration, Heart ([4]; rat, 2 hr post dose): 3280 ng/ml or ng/g
- Compound 1 Concentration, Kidney ([4]; rat, 2 hr post dose): 4980 ng/ml or ng/g
- Compound 1 Concentration, Liver ([4]; rat, 2 hr post dose): 13700 ng/ml or ng/g
- Compound 1 Concentration, Lung ([4]; rat, 2 hr post dose): 2710 ng/ml or ng/g
- Compound 1 Concentration, Plasma ([4]; rat, 2 hr post dose): 1960 ng/ml or ng/g
- Compound 1 Concentration, Spleen ([4]; rat, 2 hr post dose): 1790 ng/ml or ng/g
- Compound 1 Concentration, Brain ([4]; rat, 7 hr post dose): 111 ng/ml or ng/g
- Compound 1 Concentration, CSF ([4]; rat, 7 hr post dose): 27 ng/ml or ng/g
- Compound 1 Concentration, Heart ([4]; rat, 7 hr post dose): 3100 ng/ml or ng/g
- Compound 1 Concentration, Kidney ([4]; rat, 7 hr post dose): 4770 ng/ml or ng/g
- Compound 1 Concentration, Liver ([4]; rat, 7 hr post dose): 11400 ng/ml or ng/g
- Compound 1 Concentration, Lung ([4]; rat, 7 hr post dose): 2700 ng/ml or ng/g
- Compound 1 Concentration, Plasma ([4]; rat, 7 hr post dose): 2210 ng/ml or ng/g
- Compound 1 Concentration, Spleen ([4]; rat, 7 hr post dose): 491 ng/ml or ng/g
- Compound 1 Concentration, Brain ([4]; rat, 24 hr post dose): 30 ng/ml or ng/g
- Compound 1 Concentration, CSF ([4]; rat, 24 hr post dose): 5 ng/ml or ng/g
- Compound 1 Concentration, Heart ([4]; rat, 24 hr post dose): 771 ng/ml or ng/g
- Compound 1 Concentration, Kidney ([4]; rat, 24 hr post dose): 1600 ng/ml or ng/g
- Compound 1 Concentration, Liver ([4]; rat, 24 hr post dose): 3010 ng/ml or ng/g
- Compound 1 Concentration, Lung ([4]; rat, 24 hr post dose): 617 ng/ml or ng/g
- Compound 1 Concentration, Plasma ([4]; rat, 24 hr post dose): 592 ng/ml or ng/g
- Compound 1 Concentration, Spleen ([4]; rat, 24 hr post dose): 125 ng/ml or ng/g
- Compound 1 Concentration, Brain ([4]; rat, 48 hr post dose): 9.35 ng/ml or ng/g
- Compound 1 Concentration, CSF ([4]; rat, 48 hr post dose): BQL
- Compound 1 Concentration, Heart ([4]; rat, 48 hr post dose): 196 ng/ml or ng/g
- Compound 1 Concentration, Kidney ([4]; rat, 48 hr post dose): 673 ng/ml or ng/g
- Compound 1 Concentration, Liver ([4]; rat, 48 hr post dose): 750 ng/ml or ng/g
- Compound 1 Concentration, Lung ([4]; rat, 48 hr post dose): 185 ng/ml or ng/g
- Compound 1 Concentration, Plasma ([4]; rat, 48 hr post dose): 141 ng/ml or ng/g
- Compound 1 Concentration, Spleen ([4]; rat, 48 hr post dose): BQL
- Tissue to Plasma Ratio, CSF ([4]; rat, 48 hr post dose): BQL
- Kp ([4]; rat, brain and CSF, relative to plasma, male rats, read-out: brain and CSF exposure, % of the plasma exposure): < 0.001
- Cmax ([4]; rat, cerebrospinal fluid (CSF), male rats): 27 ng/mL
- selectivity window over PI3K-δ ([5]; B cell proliferation): 11 fold
- IC50 ([5]; Homo sapiens, 96 h, B cell/IgM/Proliferation, four days, read-out: IC50 Avg +/− SD): 3.05 ± 0.44 µM
- selectivity over PI3K-delta in cell based assays ([5]; summary): 12 fold
